We go through 1 molecule from EP1994923A2, “Cosmetic and dermatological compositions for dry skin” (Henkel AG & Co. KGaA, priority 2007, dated 2008).

The subject of the test is Aquaporine (AQ3). Description: Influence on aquaporin synthesis in a skin model (indirect immunohistology). The test is classed as cell-based. Conditions: skin model as in WO 03/053394 A2; 10 mg/ml test solution (extracts: 10 mg dry substance per ml); added systemically to the medium every two days; frozen after 6 days; cryosections. The procedure: An einem Hautmodell, wie in WO 03/053394 A2 beschrieben, wurde der Einfluss folgender Substanzen auf die Aquaporinsynthese überprüft: • 1.) Ergothionein (10 mg/ml Testlösung) • 2.) Wässriger Extrakt aus Laminaria digitata (mit einem hohen Anteil an Laminarin; verwendet wurde das Handelsprodukt Phycojuvenine in einer solchen Menge, dass die Testlösung eine Konzentration von 10 mg Extrakt-Trockensubstanz pro ml aufwies) • 3.) Wässriges Proteinhydrolysat von Hefeproteinen (verwendet wurde das Handelsprodukt Biodynes TRF Powder von Arch Chemicals Inc. in einer von 10 mg Extrakt-Trockensubstanz pro ml Testlösung)
Die Hautmodelle wurden nach Ankunft in frisches Medium gesetzt. Nach Vorinkubation über Nacht wurden sie alle zwei Tage mit den Testsubstanzen behandelt, indem der Wirkstoff systemisch in das Medium gegeben wurde. Die Kulturen wurden nach 6 Tagen für Cryoschnitte bei -80 °C eingefroren. Zum Zeitpunkt 0 wurden Kontrollproben eingefroren.
Zum Nachweis von Aquaporinen (AQ3) wurde die indirekte Immunhistologie angewendet. Hierbei bindet ein unkonjungierter Primärantikörper an das Antigen. Anschließend wird ein Sekundärantikörper eingesetzt, der gegen den Primärantikörper gerichtet ist.

With `C[N+](C)(C)[C@@H](Cc1cnc(S)[nH]1)C(=O)[O-]` [Ergothionein, 2-Mercapto-N^αN^αN^α-trimethyl-L-histidinium-Betain], the “Aquaporinsynthese (Induktion der Aquaporine (AQ3))” value is recorded as “stimulierten”.
